Reference: publication PMC9654711, “Neuroprotective Action of Coumarin Derivatives through Activation of TRKB-CREB-BDNF Pathway and Reduction of Caspase Activity in Neuronal Cells Expressing Pro-Aggregated Tau Protein” (International Journal of Molecular Sciences, 2022)

What was measured:
[1] = Oxygen radical antioxidant capacity (ORAC) assay; conditions: compound at 100 μM
Experimental: In addition, an oxygen radical antioxidant capacity (ORAC) assay was performed using an OxiSelect™ kit according to the manufacturer’s instruction (Cell Biolabs, San Diego, CA, USA). Briefly, Trolox standards (2.5–50 μM) and samples (4–100 μM) were diluted with 50% acetone. Blank (50% acetone), standards and samples were mixed with fluorescein and incubated at 37 °C for 30 min. Following the free radical initiator 2,2′-azobis(2-methylpropionamidine) dihydrochloride (AAPH), the produced peroxyl radicals (ROO•) quench the fluorescent probe over time. Antioxidants present in the assay block the peroxyl radical oxidation of the fluorescent probe. The course of the reaction was recorded for 60 min, with one measurement every five minutes using a BioTek FLx800 microplate reader. The excitation and emission wavelengths were set at 480 nm and 520 nm, respectively. To quantify the oxygen radical antioxidant activity in a sample, the area under the curve (AUC) for blank, standard and samples was calculated. After subtraction of the blank, the equivalent Trolox concentrations of samples were expressed based on the Trolox standard curve.

[2] = High-content analysis of ΔK280 tauRD-DsRed fluorescence and cell number (folding reporter); type: cell-based, human; conditions: human; induced ΔK280 tauRD-DsRed SH-SY5Y; compounds 2.5–10 µM; read-out: IC50 cytotoxicity based on the cell number analyzed
Experimental: On day 1, ∆K280 tauRD-DsRed SH-SY5Y cells were seeded in a 96-well plate (3 × 10^4/well), with retinoic acid (10 µM; Sigma-Aldrich) added to induce neuronal differentiation. […] […] For ROS measurement, dichloro-dihydro-fluorescein diacetate (DCFH-DA, 10 µM; Invitrogen, Carlsbad, CA, USA) was added to the cells on day 8 and incubated at 37 °C for 30 min.

[3] = tested on: ΔK280 tauRD-DsRed SH-SY5Y cells; test: High-content analysis of neurite outgrowth; type: cell-based, human; conditions: 10 µM; for Neurite branching: induced untreated 0.87, uninduced 0.99; for Neurite length: induced untreated 27.2 μm, uninduced 30.9 μm
Experimental: As described, ∆K280 tauRD-DsRed SH-SY5Y cells were seeded in a 24-well plate (5 × 10^4/well) with retinoic acid addition on day 1, treated with tested compounds (10 µM) and ∆K280 tauRD-DsRed expression was induced with doxycycline (2 μg/mL) on day 2. On day 8, after being fixed in 4% paraformaldehyde for 15 min, permeabilized in 0.1% Triton X-100 for 10 min and blocked in 3% bovine serum albumin (BSA) for 20 min, the cells were stained with TUBB3 (neuronal class III β-tubulin) primary antibody (1:1000; BioLegend, San Diego, CA, USA) at 4 °C overnight, followed by goat anti-rabbit Alexa Fluor® 555 secondary antibody (1:1000; Molecular probes) at room temperature for 2 h, with 4′-6-diamidino-2-phenylindole (DAPI, 0.1 µg/mL; Sigma-Aldrich) included for nuclei staining. Neuronal images were captured using the high-content analysis system as described. Neurite total length (μm), processes (primary neurite extensions projecting directly from the cell body) and branching (points at which primary neurites bifurcated) were analyzed using Neurite Outgrowth Application Module (MetaXpress; Molecular Devices). Around 5000 cells were analyzed in each of three independent experiments for each sample.

[4] = DPPH free radical-scavenging assay; conditions: compounds tested 10–80 μM; DPPH 100 µM; linear interpolation
Experimental: The potential free radical-scavenging activity of test compounds was assayed using stable free radical 1,1-diphenyl-2-picrylhydrazyl (DPPH) (Sigma-Aldrich). Briefly, kaempferol, LM-031 or LMDS-1 to -4 (10–80 µM) was added to DPPH (100 µM in 99% ethanol). The solution was vortexed for 15 s, left for 30 min at room temperature, the mixture was transferred to a 96-well UV-transparent microplate and the absorbance at 517 nm was measured using a Multiskan^TM GO microplate spectrophotometer (Thermo Fisher Scientific, Waltham, MA, USA). Radical-scavenging activity was calculated using the equation: 1 − (absorbance of sample/absorbance of control) × 100%, and EC50 estimated using the linear interpolation method.

[5] = target: T1, TRKB-ECD-His (extracellular domain of TRKB) (Homo sapiens, UniProt Q16620); test: Tryptophan fluorescence quenching assay; conditions: TRKB-ECD-His 50 nM in PBS; excitation 295 nm, emission 330 nm; compounds 0–1000 nM; read-out: TRKB-ECD binding affinity (KD)
T1 construct: extracellular domain of TRKB (TRKB-ECD) (residues 32–429, XP_016870240); Saccharomyces cerevisiae α-factor secretion signal (N, cleaved yes); made in house; host or cells: Pichia pastoris
Text: The cDNA fragment containing the full-length extracellular domain of TRKB (TRKB-ECD) (residues 32–429, XP_016870240) was amplified from pDONR223-NTRK2 plasmid (Addgene, Watertown, MA, USA) using forward primer 5′-ctcgagaaaagagaggctgaagctTGTCCCACGTCCTGAAATG (XhoI site and Kex2 cleavage of the signal sequence in lowercase letters) and reverse primer 5′-gtcgac[…] (SalI site in lowercase letters). After cloning and sequencing, the TRKB-ECD fragment was excised with XhoI and SalI and subcloned into Pichia expression vector pGAPZα A (Invitrogen). The AvrII-linearized plasmid was then transformed into Pichia pastoris, and stable transformants selected and cultured at 30 °C for 4 days for constitutive expression of recombinant His-tagged TRKB-ECD. The secreted TRKB-ECD-His in cultured medium was purified using Ni-NTA His•Bind resins (Novagen, Madison, WI 53719, USA) according to the supplier’s instructions. Protein purity was examined by Coomassie blue staining of SDS-polyacrylamide gel as well as immunoblotting using anti-His (1:2000; Acris, Herford, Germany) and anti-TRKB (1:1000; Cell Signaling) antibodies.
The interaction between TRKB-ECD-His and LM-031, LMDS-1 or LMDS-2 was determined by tryptophan fluorescence titration. 7,8-DHF (Sigma-Aldrich) was included as a positive control. Tryptophan fluorescence spectra of TRKB-ECD-His (50 nM in PBS) were obtained before and after titration with different concentrations of test compounds (0–1000 nM). The fluorescent quenching was conducted in a cuvette with a 1 cm path length cell by an F-7000 fluorescence spectrophotometer (Hitachi, Tokyo, Japan) at room temperature. The intrinsic fluorescence spectra of TRKB were recorded with excitation wavelength set at 295 nm and emission wavelength in the range 300–400 nm. The dissociation constant (KD) of 7,8-DHF, LM-031, LMDS-1 and LMDS-2 to TRKB was determined by fitting the normalized fluorescence intensity at 330 nm under different concentrations of test compounds using the equation derived from Liu et al.:KD = [P]T (f − 1) + [D]T (1/f − 1), where f is the fractional change, and [P]Tand [D]Tare the total concentration of TRKB-ECD-His protein and test compound, respectively.

T1 sequence (Q16620 32-429): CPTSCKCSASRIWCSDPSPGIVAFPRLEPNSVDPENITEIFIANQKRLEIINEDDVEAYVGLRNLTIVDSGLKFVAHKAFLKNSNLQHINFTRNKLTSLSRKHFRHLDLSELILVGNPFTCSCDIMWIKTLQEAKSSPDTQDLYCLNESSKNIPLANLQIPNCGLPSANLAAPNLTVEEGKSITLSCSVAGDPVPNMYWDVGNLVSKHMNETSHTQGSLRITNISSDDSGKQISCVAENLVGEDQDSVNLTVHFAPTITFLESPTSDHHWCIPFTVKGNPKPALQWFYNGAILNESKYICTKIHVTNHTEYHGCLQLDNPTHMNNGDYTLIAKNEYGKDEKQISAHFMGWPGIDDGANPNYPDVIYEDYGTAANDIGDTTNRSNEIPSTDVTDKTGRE

For `O=C(c1ccccc1)c1cc2c(O)cccc2oc1=O` [LM-031, 3-benzoyl-5-hydroxychromen-2-one], the “Oxygen radical absorbance capacity, activity equivalent to Trolox” value (from here on “Oxygen radical absorbance capacity”) [1] was 51 μM Trolox, the IC50 at 6 days [2] was 43 µM and the Neurite branching [3] was 1.00–1.06. The Neurite length [3] was 30.3–31.5 μm, the EC50 [4] was 93 µM and the Kd [5] was 0.0127 ± 0.0028 µM.

With `CCOc1ccc2cc(C(=O)c3ccccc3)c(=O)oc2c1` [LMDS-1] the “Oxygen radical absorbance capacity” value [1] was 10 μM Trolox, the IC50 at 6 days [2] was 25 µM and the Neurite branching [3] was 1.00–1.06. For the same compound, the Neurite length [3] was 30.3–31.5 μm, the EC50 [4] was 122 µM and the Kd [5] was 0.008 ± 0.017 µM.

With `O=C(c1ccccc1)c1cc2ccc(O)cc2oc1=O` [LMDS-2] the “Oxygen radical absorbance capacity” value [1] was 15 μM Trolox, the IC50 at 6 days [2] was 24 µM and the Neurite branching [3] was 1.00–1.06. The Neurite length [3] was 30.3–31.5 μm, the EC50 [4] was 132 µM and the Kd [5] was 0.0065 ± 0.0066 µM.
